US20050010123A1, “Process for measuring QT intervals and constructing composite histograms to compare groups” (priority 2003, published 2005)

Assay: Beat-to-beat QTc interval histograms from 24-hour ambulatory ECG (Holter) recordings
Format: in vivo, patients
Description: An example of this type of device is a Reynolds Medical Tracker II (Reynolds Medical, Hertford UK) recorder. […] For QT interval analysis, the sample rate can be between 128 and 2000 samples per seconds. The preferred embodiment is the use of a sample rate of at least of at least 1000 samples per second. These digital recorders must also be compatible with a Holter playback system that can produce beat-to beat interval measurements. An example of this type of device is the Reynolds Medical LifeCard CF recorder (Reynolds Medical, Hertford, UK). An example of the compatible Holter playback system is the Reynolds Medical Pathfinder 700 series. […]
Using the digitized file of the electrocardiogram, a QT interval analysis may be accomplished in the following manner: The onset of a Q-wave (Qb) may be defined and a cursor may be placed at this point. […] The data from the digital file may then be replayed at 60-times normal time, while the cursors on the Qb and Te points may be monitored for stability. […] The QT intervals may be measured for the entire AECG recording on a beat-to-beat basis. […]
The peak of an R-wave may be detected and a third cursor may be placed (Rp). […]
In the examples described herein QTc was calculated by removing a time-series of the QT and preceding R--R intervals to a high-speed computer with both a fast processor and adequate disk storage space. […]

COc1cc(N)c(Cl)cc1C(=O)NC1CCN(CCCOc2ccc(F)cc2)CC1OC (centres unmarked) [cisapride, Cisapride]
mean QTc interval (QTc interval histogram of a single patient taking cisapride (FIG. 3), 24 hour AECG): 440 ms
mean QTc (composite curve of subjects on drug therapy (FIG. 4: subjects on cisapride), normal subjects 409 msec, ILQT 475 msec): 430 ms
